Experiment [1] addresses T1, ASK1 (Homo sapiens, UniProt Q99683).
T1 construct: gene MAP3K5
T1 sequence (Q99683 1-1374): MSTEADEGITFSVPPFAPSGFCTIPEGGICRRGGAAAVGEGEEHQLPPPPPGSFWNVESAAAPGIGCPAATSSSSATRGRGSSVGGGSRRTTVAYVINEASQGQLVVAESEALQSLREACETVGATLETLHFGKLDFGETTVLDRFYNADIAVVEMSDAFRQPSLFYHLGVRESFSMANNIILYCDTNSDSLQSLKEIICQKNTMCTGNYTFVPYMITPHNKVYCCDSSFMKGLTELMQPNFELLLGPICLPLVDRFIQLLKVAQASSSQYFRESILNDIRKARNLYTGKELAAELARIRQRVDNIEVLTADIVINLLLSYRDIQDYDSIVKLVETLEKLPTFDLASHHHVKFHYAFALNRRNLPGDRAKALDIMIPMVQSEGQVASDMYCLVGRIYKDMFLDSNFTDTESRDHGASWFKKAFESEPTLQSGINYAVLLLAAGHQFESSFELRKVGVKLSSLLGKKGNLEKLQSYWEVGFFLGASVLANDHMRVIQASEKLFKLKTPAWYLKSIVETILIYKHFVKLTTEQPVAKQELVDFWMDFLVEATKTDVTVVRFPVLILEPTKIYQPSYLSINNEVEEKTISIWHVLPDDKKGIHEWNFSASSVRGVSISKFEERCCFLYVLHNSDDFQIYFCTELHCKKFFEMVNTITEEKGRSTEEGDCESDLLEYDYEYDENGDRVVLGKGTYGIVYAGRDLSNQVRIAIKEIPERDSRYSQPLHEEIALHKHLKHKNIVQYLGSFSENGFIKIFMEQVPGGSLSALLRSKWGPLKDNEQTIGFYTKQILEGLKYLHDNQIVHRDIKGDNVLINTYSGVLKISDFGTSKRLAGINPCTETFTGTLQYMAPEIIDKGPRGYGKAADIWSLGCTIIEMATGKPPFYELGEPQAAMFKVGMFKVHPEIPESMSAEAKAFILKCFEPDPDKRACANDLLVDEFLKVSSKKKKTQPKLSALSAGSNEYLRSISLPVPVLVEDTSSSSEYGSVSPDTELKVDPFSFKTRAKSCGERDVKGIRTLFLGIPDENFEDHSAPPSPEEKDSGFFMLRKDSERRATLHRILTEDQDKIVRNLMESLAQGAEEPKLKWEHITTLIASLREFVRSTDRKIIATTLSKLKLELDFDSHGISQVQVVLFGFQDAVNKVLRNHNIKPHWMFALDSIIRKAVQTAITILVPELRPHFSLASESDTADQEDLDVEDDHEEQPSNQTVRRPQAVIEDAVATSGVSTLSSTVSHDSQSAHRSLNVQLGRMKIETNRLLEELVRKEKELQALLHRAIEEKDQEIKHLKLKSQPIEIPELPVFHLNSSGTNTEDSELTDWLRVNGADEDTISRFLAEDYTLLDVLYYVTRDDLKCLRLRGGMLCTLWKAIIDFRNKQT
Kind of experiment: […]PanQinase radiometric kinase assay (Reaction Biology). To be noted: read-out: Residual activities [% of control] / 1(R) 10 μM. Type of experiment: biochemical.

For experiment [2], the target named is T1, ASK1. In words: biochemical. To be noted: mean of intraexperimental duplicates, n = 1; read-out: Residual activities [% of control] / 1(S) 10 µM. The arrangement: 33PanQinase radiometric kinase activity assay, residual activity in % of control, contract lab Reaction Biology.

The source of these data is paper PMC12503911, “Cytotoxicity of Atropisomeric [1,1′‐Binaphthalene]‐2,2′‐Diamines (BINAM) and Analogs in Human Cancer Cells: Enantioselectivity, Structure–Activity Relationships, and Mechanism” (Chemmedchem, 2025).

Turning to `Nc1ccc2ccccc2c1-c1c(N)ccc2ccccc12` [1(R), (R)‐[1,1′‐binaphthalene]‐2,2′‐diamine], the remaining activity at 10 µM on ASK1 [1] came out at 90%. Turning to `Nc1ccc2ccccc2c1-c1c(N)ccc2ccccc12` [1(S), S‐BINAM], the remaining activity at 10 µM at ASK1 [2] is 117%.
